Results on 96 compounds are retold here after PubChem BioAssay AID1117319 (Southern Research Institute, 2015).

Results filed as inconclusive are left out. Some results are limits rather than exact numbers.

For the test, the target named is Virion infectivity factor (Human immunodeficiency virus type 1 group M subtype B (isolate BH10)) + Virion infectivity factor (Human immunodeficiency virus type 1 group M subtype B (isolate BRU/LAI)) + Virion infectivity factor (Human immunodeficiency virus type 1 group M subtype B (isolate PCV12)) + Virion infectivity factor (Human immunodeficiency virus type 1 group M subtype B (isolate HXB2)) + DNA dC->dU-editing enzyme APOBEC-3G (Homo sapiens) (UniProt P69720+P69721+P69722+P69723+Q9HC16). Kind of test: inhibitors of Vif binding to APOBEC3G peptide, primary screen, biochemical, TR-FRET, GST-Vif 1-94, biotin-A3G peptide, dose response retest (AID 1117319).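 Also: Vif residues 1-94 fused to GST binding biotinylated APOBEC3G peptide 110-148.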 A general note: In TR-FRET formats the signal depends on donor and acceptor labels being close together.
For orientation: IC50 means the midpoint of a concentration-inhibition curve. In the case of `CCN(CC(=O)Nc1c(F)cccc1F)C(=O)c1cccc(-n2cccc2)c1`, the 50% inhibitory concentration (IC50) is 20.9 µM.

For `CCCCC(=O)NC(=S)Nc1cc(C(=O)O)ccc1Cl`, the IC50 is 16 µM.

As for `O=C(C1CCCN1S(=O)(=O)c1cccc2cccnc12)N1CCN(c2ccccc2)CC1` (stereo unspecified), the concentration for half-maximal inhibition (IC50) was 40.2 µM.

For the compound `CCc1ccc(N2C(=O)NC(=O)/C(=C\C=C\c3ccco3)C2=O)cc1`, the IC50 was 7.09 µM.

Consider `Nc1cccc2c(O)cc(S(=O)(=O)O)cc12`, for which the IC50 was 2 µM.

As to `O=C1NC(=O)N(c2ccccc2)C(=O)/C1=C\c1ccc([N+](=O)[O-])s1`, the IC50 is 13.4 µM.

As for `Cc1ccc(C)c(NC(=O)CN(C)C(=O)c2cccc(-n3cccc3)c2)c1`, the IC50 is 15.4 µM.

Consider `Cc1cc(-c2csc(NC(=O)c3cc4ccccc4o3)n2)c(C)n1C`, for which the IC50 is 48.7 µM.

With `COC(=O)C1=COC(C)C2CN3CCc4c([nH]c5ccccc45)C3CC12` (stereo unspecified), the half-inhibitory concentration (IC50) is 17.9 µM.

Consider `CCC(=Nc1ccc(N)cc1)C1=C(O)C(C(=O)OC)C(C)(C)CC1=O` (stereo unspecified), for which the concentration for half-maximal inhibition (IC50) is 2.01 µM.

As to `O=C(OCC1O[C@@H](OC(=O)c2cc(O)c(O)c(O)c2)[C@@H](OC(=O)c2cc(O)c(O)c(O)c2)[C@@H](OC(=O)c2cc(O)c(O)c(O)c2)[C@@H]1OC(=O)c1cc(O)c(O)c(O)c1)c1cc(O)c(O)c(O)c1` (stereo partly specified), the IC50 was less than 0.195 µM.

On to `N=C1/C(=C\c2ccc(SCc3ccco3)o2)C(=O)N=C2SC=NN12`, for which the concentration for half-maximal inhibition (IC50) is 1.21 µM.

`C[c-]1[c-](C)[c-](C)[c-](C)[c-]1C.[Fe].c1cc2nccc(N3CCCC3)[c-]2c1` (stereo unspecified): the IC50 is 2.03 µM.

As for `O=C1NC(=O)C(=Cc2ccc(SC3CCCCC3)o2)C(=O)N1`, the half-maximal inhibitory concentration (IC50) was 29 µM.

For `CC(C)C1Nc2ccc(C(=O)O)cc2C2C=CCC21` (stereo unspecified), the IC50 was 8.06 µM.

Regarding `CCOc1cccc(CNc2ccc(O)cc2)c1OCc1ccccc1Cl`, the IC50 was 6.61 µM.

With `O=[N+]([O-])c1cc2no[n+]([O-])c2cc1N1CCCCC1`, the IC50 was 7.67 µM.

For the compound `CCC(=O)NNc1ncnc2ccccc12`, the IC50 is 16.4 µM.

As to `CCCCn1c(SCC(=O)NCc2ccco2)nc2ccc(N3CCOCC3)cc2c1=O`, the IC50 was 12.5 µM.

In the case of `C=CCN1CCc2cccc3c2[C@H]1Cc1ccc(O)c(O)c1-3`, the 50% inhibitory concentration (IC50) was 14.8 µM.

With `CC(=O)c1ccc(NC(=O)CSc2nnc(-c3ccco3)c(-c3ccco3)n2)cc1`, the IC50 is 3.91 µM.

As to `CC(CNc1ccccc1O)C(=O)O` (stereo unspecified), the IC50 was 6.17 µM.

For the compound `O=C(CSc1nc2ccccc2n1CCc1ccccc1)c1ccc(O)c(O)c1`, the IC50 is 2.14 µM.

Consider `CCCCn1c(=NC(=O)c2cccnc2)c(C#N)cc2c(=O)n3cccc(C)c3nc21`, for which the IC50 is 55.9 µM.

As to `NC(=O)C[C@@H]1N[C@]2(C(=O)Nc3ccccc32)[C@@H]2C(=O)N(c3cc(C(F)(F)F)ccc3Cl)C(=O)[C@H]12`, the IC50 was 55.5 µM.

With `O=C(NN1C(=O)/C(=C/C=C/c2ccco2)SC1=S)c1ccncc1`, the IC50 is 2.37 µM.

Consider `COc1ccc(N2CCN(C(=O)c3c(-c4ccccc4)noc3C)CC2)cc1`, for which the half-maximal inhibitory concentration (IC50) is 31.1 µM.

For the compound `O=C(O)c1ccc(S(=O)(=O)c2ccc([N+](=O)[O-])cc2[N+](=O)[O-])cc1`, the IC50 is 53.3 µM.

For `CCOCCNC(=O)c1ccccc1C(=O)NCCOCC`, the IC50 was 89.2 µM.

In the case of `CCCn1c(CNc2ccccc2O)nc2ccccc21`, the half-inhibitory concentration (IC50) is 53 µM.

On to `O=C(/C=C/c1ccco1)NC(=S)Nc1ccccc1N1CCOCC1`, for which the IC50 is 11.5 µM.

Turning to `O=C(O)C1Nc2c(O)cc(Cl)c([N+](=O)[O-])c2C2C=CCC12` (stereo unspecified), the IC50 is 0.23 µM.

For `O=C(O)CCc1ccc(-c2cccs2)n1-c1ccc(C(=O)O)cc1`, the 50% inhibitory concentration (IC50) was 80.6 µM.

Consider `CCOC(=O)c1nn(-c2ccc(Cl)cc2Cl)c(=N)c(C#N)c1C`, for which the IC50 was 12.7 µM.

`Oc1ccc(/C=N/N2CCCCC2)c(O)c1O`: the IC50 is 19.2 µM.

On to `C[n+]1cccc2cccc([O-])c21`, for which the half-maximal inhibitory concentration (IC50) is 1.4 µM.

With `Cc1cc2c(c(=O)o1)C(c1ccc([N+](=O)[O-])o1)C(C#N)=C(N)O2` (stereo unspecified), the half-inhibitory concentration (IC50) was 2.53 µM.

For `COc1ccc(C2=NOC(C(=O)NCc3cccs3)C2)cc1OC` (stereo unspecified), the IC50 is 89.8 µM.

Turning to `O=C(Nc1ccc2nc(-c3ccco3)c(-c3ccco3)nc2c1)NC1CC1`, the IC50 is 0.3 µM.

`O=C(CCCCCN1C(=O)CCC1=O)Nc1ccc(Cl)c(C(F)(F)F)c1`: the IC50 is 3.93 µM.

`O=C1/C(=C/c2ccco2)SC(=S)N1C1CCS(=O)(=O)C1` (stereo unspecified): the IC50 is 3.88 µM.

`CC(=O)NN1C(=O)/C(=C\c2ccc(Br)o2)SC1=S`: the IC50 is 5.73 µM.

`Cc1nc2c(=O)[nH]c(=S)[nH]c2[nH]c1=O`: the IC50 was 50.7 µM.

Take `Cc1ccc(N2C(=O)/C(=C\c3ccco3)SC2=S)cc1`: the half-maximal inhibitory concentration (IC50) is 7.72 µM.

Take `Oc1cc2c(cc1O)[C@@H](c1ccccc1)CNCC2`: the half-inhibitory concentration (IC50) was 48.1 µM.

`O=[N+]([O-])c1c(NCCO)cc(Sc2nc3ccccc3s2)c2nonc12`: the IC50 is 34.9 µM.

With `O=C(O)CCc1ccc(S(=O)(=O)Nc2cc(C(F)(F)F)ccc2N2CCCC2)cc1`, the half-maximal inhibitory concentration (IC50) is 14.4 µM.

Regarding `CC(=O)c1cccc(NC(=O)c2cnn3ccccc23)c1`, the IC50 is 77.6 µM.

Regarding `c1cnc(N2CCN(c3cnccn3)CC2)nc1`, the IC50 was 14.3 µM.

Regarding `O=[N+]([O-])c1ccc(Cl)c(S(=O)(=O)Nc2cccc(S(=O)(=O)NC3=NCCC3)c2)c1`, the half-maximal inhibitory concentration (IC50) is 5.64 µM.

As to `O=C(COc1ccccc1Cl)c1ccc[nH]1`, the concentration for half-maximal inhibition (IC50) was 2.91 µM.

Turning to `CN(C(=O)COC(=O)c1cc(-c2ccco2)nc2ccccc12)C1CCS(=O)(=O)C1` (stereo unspecified), the IC50 is 1.44 µM.

Regarding `CCN1C(=O)/C(=C\c2ccc([N+](=O)[O-])s2)C(=O)NC1=S`, the IC50 is 1.53 µM.

Take `COc1ccc2c(c1)c1ccc3c(c1n2C)C(=O)C=CC3=O`: the 50% inhibitory concentration (IC50) was 2.42 µM.

With `COc1ccc(S(=O)(=O)c2c(N)n(Cc3ccco3)c3nc4ccccc4nc23)cc1`, the IC50 was 3.47 µM.

As for `N#C/C(=C/c1ccc(N2CCCCCC2)o1)c1cccc(F)c1`, the IC50 was 24.6 µM.

With `N#Cc1ccc(CSc2nnc(Cc3cccs3)n2Cc2ccco2)cc1`, the half-maximal inhibitory concentration (IC50) was 46.5 µM.

Take `COC(=O)COc1ccc(S(=O)(=O)Nc2cc(OC)ccc2OC)cc1`: the concentration for half-maximal inhibition (IC50) is 5.05 µM.

Consider `O=C1OC(c2ccc3ccccc3c2O)(c2ccc3ccccc3c2O)c2ccccc21`, for which the IC50 was 9.39 µM.

On to `COC(=O)CCC(=O)OC1(C)C(=O)C2=COC(c3ccc(OC)cc3)=CC2=C(Br)C1=O` (stereo unspecified), for which the IC50 is 13.7 µM.

Regarding `CCN(CC(=O)Nc1c(C(=O)OC)[nH]c2ccccc12)c1ccc2c(c1)OCO2`, the half-maximal inhibitory concentration (IC50) is 5.84 µM.

With `COc1cccc(C(C#N)N2CCCCC2)c1O` (stereo unspecified), the half-inhibitory concentration (IC50) is 79.2 µM.

For the compound `NS(=O)(=O)c1ccc(N=Nc2ccc(=O)[nH]c2O)cc1`, the IC50 is 5.22 µM.

`CC(C)(C)c1ccc(-c2nnc(SCCC#N)n2C2CCCC2)cc1`: the IC50 is 86.7 µM.

Turning to `O=[N+]([O-])c1ccccc1NC(=S)N/N=C/c1ccc(O)c(O)c1`, the IC50 is 4.06 µM.

Take `CC1(OC(=O)CCc2ccccc2)C(=O)C=C2C=C(c3ccsc3)OC=C2C1=O` (stereo unspecified): the IC50 was 4.73 µM.

For the compound `O=[N+]([O-])c1cc2oc3c(c2c(C=NCc2ccncc2)c1O)CCCC3`, the 50% inhibitory concentration (IC50) is 4.52 µM.

As to `COC(=O)c1ccccc1-c1c2ccc(=N)cc-2oc2cc(N)ccc12`, the half-maximal inhibitory concentration (IC50) is 13.6 µM.

In the case of `NC(=O)c1c(NC(=O)c2ccc(S(=O)(=O)N3CCOCC3)cc2)sc2c1CCCCC2`, the 50% inhibitory concentration (IC50) was 98.3 µM.

Turning to `O=C(/C=C/c1cccs1)Nc1ccc(Br)cn1`, the IC50 was 10.2 µM.

Turning to `COc1cccc(-c2cn3nc4c(nc3n2)CCCC4)c1`, the IC50 was 17.6 µM.

As for `COC(=O)c1ccc(CC(=O)c2c(C)cc(O)cc2O)o1`, the IC50 is 2.33 µM.

Regarding `CCOC(=O)c1ccc2c(c1)C1C=CCC1C(C(=O)O)N2` (stereo unspecified), the IC50 is 1.25 µM.

`COc1cc(NCCCCCCN)c2ncccc2c1OC`: the IC50 is 3.55 µM.

As to `C=CCSc1nnc(NC(=O)CSc2nnc(C)s2)s1`, the IC50 is 90.6 µM.

Turning to `Brc1c(CSc2nnc(-c3ccco3)o2)nc2ccccn12`, the IC50 was 30.6 µM.

Take `COc1cc2c(cc1OC)C(=O)C(Br)CC2` (stereo unspecified): the IC50 was 1.48 µM.

For `COc1ccc(CCNC(=O)c2ccc3nc(-c4ccco4)c(-c4ccco4)nc3c2)cc1OC`, the IC50 is 0.45 µM.

Turning to `CC(=O)N1CCN(c2ccc(NCc3ccc4c(c3)OCO4)cc2)CC1`, the concentration for half-maximal inhibition (IC50) was 3.78 µM.

`O=C(c1cc2n(n1)C(C(F)(F)F)CC(c1ccco1)N2)N1CCc2ccccc2C1` (stereo unspecified): the IC50 was 33.2 µM.

As for `Cc1oc(/N=C/c2cccc3ccccc23)c(C#N)c1C`, the IC50 was 52.7 µM.

With `CN1CCC(N(C)C(=O)COc2ccccc2-c2ccccc2)CC1`, the IC50 was 10.8 µM.

`CCOC(=O)C1=C(C)NC(C)=C(C(=O)OCC)C1c1cn(-c2ccccc2)nc1-c1ccco1`: the IC50 was 31.1 µM.

As to `O=C(c1ccc(=O)oc1)N1CCCc2ccccc21`, the IC50 is 38.3 µM.

In the case of `CC(=O)Nc1cc(NC(C)=O)cc(C(=O)N2CCCC3CCCCC32)c1` (stereo unspecified), the IC50 is 9.5 µM.

As for `CCCNC1=C(C)C(=O)C2=C(C1=O)C(COC(N)=O)[C@]1(OC)C3NC3CN21` (stereo partly specified), the concentration for half-maximal inhibition (IC50) is 8.12 µM.

Take `Cc1cc(-c2n[nH]c(=S)n2/N=C/C=C/c2ccco2)n[nH]1`: the IC50 was 6.02 µM.

For `CCOC(=O)c1c(NC(=O)c2cccs2)sc(C)c1C`, the IC50 is 32.9 µM.

Regarding `CCCCN1C2CCCC1CC(NC(=O)c1ccc(OC)c(OC)c1)C2` (stereo unspecified), the IC50 was 19.1 µM.

As to `COc1cc2c(cc1OC)C(C)N(C(=O)c1cc3n(n1)C(C(F)(F)F)CC(c1ccco1)N3)CC2` (stereo unspecified), the 50% inhibitory concentration (IC50) was 27.8 µM.

On to `Cc1cccc2c1c1ccc3c(c1n2C)C(=O)C=CC3=O`, for which the IC50 is 7.63 µM.

Take `O=CN/C=C/c1cc(O)ccc1O`: the 50% inhibitory concentration (IC50) was 1.72 µM.

Regarding `COCCCNC(=O)/C(C#N)=C/c1ccc(OCC(=O)O)c(OC)c1`, the IC50 is 4.12 µM.

On to `C(=C\c1ccco1)/C=N/n1cnnc1`, for which the IC50 is 1.35 µM.

`Cc1cc(C)c2c(c1)[C@@H]1C=CC[C@@H]1[C@H](c1ccc(S(=O)(=O)N3CCOCC3)cc1)N2`: the IC50 is 19.5 µM.

`NS(=O)(=O)c1ccc2c(c1)C1C=CCC1C(C1CC=CCC1)N2` (stereo unspecified): the IC50 was 3.42 µM.
